# Assay results as given in patent US6531584B1, “2'modified oligonucleotides” (ISIS Pharmaceuticals, Inc., priority 1990, dated 2003).
# Where “and” joins values, the source holds several entries; their conditions need not be identical. Identical values can stand only once. Strand notation (5' to 3'): a small letter for the sugar, then the base; units joined by * are phosphorothioate-linked, units joined directly phosphodiester-linked; [ ] holds rarer units or linkages, { } end groups; capitals alone tell only the bases. d = 2'-deoxy (DNA); m = 2'-O-methyl; f = 2'-fluoro
# What was measured:
# [1] = test system: mutant (activated) H-ras RNA; assay type: cell-based, human
# ras mRNA = test: Northern blot analysis of ras expression in T24 cells; assay type: cell-based, human; parameters: inhibition of ras expression / decrease of ras mRNA: concentration or dose not given beside the values; conditions: T24 cells, Northern blot
# Experimental: The human urinary bladder cancer cell line T24 was obtained from the American Type Culture Collection (Rockville Md.). Cells were grown in McCoy's 5A medium with L-glutamine (GIBCO-BRL, Gaithersburg, Md.), supplemented with 10% heat-inactivated fetal calf serum and 50 U/ml each of penicillin and streptomycin. Cells were seeded on 100 mm plates. When they reached 70% confluency, they were treated with oligonucleotide. Plates were washed with 10 ml prewarmed PBS and 5 ml of OptiMEM (GIBCO) reduced-serum medium containing 2.5 μl DOTMA. Oligonucleotide was then added to the desired concentration. After 4 hours of treatment, the medium was replaced with McCoy's medium. Cells were harvested 48 hours after oligonucleotide treatment and RNA was isolated using a standard CsCl purification method. [Kingston in Current Protocols in Molecular Biology, F. M. Ausubel, R. Brent, R. E. Kingston, D. D. Moore, J. A. Smith, J. G. Seidman and K. Strahl, Eds., John Wiley and Sons, New York.] The human epithelioid carcinoma cell line HeLa 229 was obtained from the American Type Culture Collection (Bethesda, Md.). HeLa cells were maintained as monolayers on 6-well plates in Dulbecco's Modified Eagle's medium (DMEM) supplemented with 10% fetal bovine serum and 100 U/ml penicillin. Treatment with oligonucleotide and isolation of RNA were essentially as described above for T24 cells.
# Northern hybridization: 10 μg of each RNA was electrophoresed on a 1.2% agarose/formaldehyde gel and transferred overnight to GeneBind 45 nylon membrane (Pharmacia LKB, Piscataway, N.J.) using standard methods. [Kingston in Current Protocols in Molecular Biology, F. M. Ausubel, R. Brent, R. E. Kingston, D. D. Moore, J. A. Smith, J. G. Seidman and K. Strahl, Eds., John Wiley and Sons, New York.] RNA was UV-crosslinked to the membrane. Double-stranded ^32P-labeled probes were synthesized using the Prime a Gene labeling kit (Promega, Madison, Wis.). The ras probe was a SalI-NheI fragment of a cDNA clone of the activated (mutant) H-ras mRNA having a GGC-to-GTC mutation at codon-12. The control probe was G3PDH. Blots were prehybridized for 15 minutes at 68° C. with the QuickHyb hybridization solution (Stratagene, La Jolla, Calif.). The heat-denatured radioactive probe (2.5×10^6 counts/2 ml hybridization solution) mixed with 100 μl of 10 mg/ml salmon sperm DNA was added and the membrane was hybridized for 1 hour at 68° C. The blots were washed twice for 15 minutes at room temperature in 2×SSC/0.1% SDS and once for 30 minutes at 60° C. with 0.1×SSC/0.1%SDS. Blots were autoradiographed and the intensity of signal was quantitated using an ImageQuant PhosphorImager (Molecular Dynamics, Sunnyvale, Calif.). Northern blots were first hybridized with the ras probe, then stripped by boiling for 15 minutes in 0.1×SSC/0.1%SDS and rehybridized with the control G3PDH probe to check for correct sample loading.
# c-raf mRNA = test: Northern blot analysis of c-raf mRNA expression in T24 cells; assay type: cell-based, human
# Source text: Chimeric oligonucleotides having SEQ ID NO:7 were designed using the Genbank c-raf sequence HUMRAFR (Genbank listing x03484), synthesized and tested for inhibition of c-raf mRNA expression in T24 bladder carcinoma cells using a Northern blot assay. These chimeric oligonucleotides have central “gap” regions of 6, 8 or 10 deoxynucleotides flanked by two regions of 2′-O-methyl modified nucleotides, and are shown in Table 10. Backbones were uniformly phosphorothioate. […] These oligonucleotides are preferred.
# The human urinary bladder cancer cell line T24 was obtained from the American Type Culture Collection (Rockville, Md.). Cells were grown in McCoy's 5A medium with L-glutamine (GIBCO-BRL, Gaithersburg, Md.), supplemented with 10% heat-inactivated fetal calf serum and 50 U/ml each of penicillin and streptomycin. Cells were seeded on 100 mm plates. When they reached 70% confluency, they were treated with oligonucleotide. Plates were washed with 10 ml prewarmed PBS and 5 ml of OptiMEM reduced-serum medium containing 2.5 μl DOTMA. Oligonucleotide with lipofectin was then added to the desired concentration. After 4 hours of treatment, the medium was replaced with McCoy's medium. Cells were harvested 24 to 72 hours after oligonucleotide treatment and RNA was isolated using a standard CsCl purification method. [Kingston in Current Protocols in Molecular Biology, F. M. Ausubel, R. Brent, R. E. Kingston, D. D. Moore, J. A. Smith, J. G. Seidman and K. Strahl, Eds., John Wiley and Sons, New York.] Total RNA was isolated by centrifugation of cell lysates over a CsCl cushion. RNA samples were electrophoresed through 1.2% agarose-formaldehyde gels and transferred to hybridization. membranes by capillary diffusion over a 12-14 hour period. The RNA was cross-linked to the membrane by exposure to UV light in a Stratalinker (Stratagene, La Jolla, Calif.) and hybridized to random-primed ^32P-labeled c-raf cDNA probe (obtained from ATCC) or G3PDH probe as a control. RNA was quantitated using a Phosphorimager (Molecular Dynamics, Sunnyvale, Calif.).
# [2] = test system: complementary RNA strand (the sense strand); test: Thermal melting analysis of 2′-deoxy-2′-fluoro modified antisense oligonucleotides with complementary RNA; assay type: binding; conditions: for Tm (° C.)/ subst.: change in Tm per 2′-fluoro substitution; for Tm (° C.): second Tm column: change in Tm versus unmodified oligonucleotide
# PKC-α mRNA = test: Northern blot analysis of PKC-α mRNA levels; assay type: cell-based, human; conditions: FIGS. 3 to 5
# Experimental: Oligonucleotides having SEQ ID NO:4 were synthesized as uniformly phosphorothioate chimeric oligonucleotides having a centered deoxy gap of varying lengths flanked by 2′-O-methylated regions. These oligonucleotides (500 nM concentration) were tested for effects on PKC-α mRNA levels by Northern blot analysis.
# [3] = first G°37 column: free energy of duplex with complementary RNA
# [4] = second G°37 column: change versus unmodified oligonucleotide
substance,measurement,setting,value
"oligonucleotide with the 2′-O-propyl diester flanking regions: SEQ ID NO:1, phosphorothioate in the 7-base deoxy gap only, phosphodiester 2′-O-propyl flanking regions (DNA CCACACCGACGGCGCCC; sugars by position and backbone not given here; 2'-O-propyl phosphodiester flanks, 7-base phosphorothioate deoxy gap)",effect on ras expression,[1],able to inhibit ras expression
"Oligonucleotide 4689: SEQ ID NO:1, 2′-fluoro-modified nucleotides flanking a 5-deoxy gap (CCACACCGACGGCGCCC; sugars from the 5' end f6 d5 f6, all phosphorothioate, methylation of C not given here)",inhibition of ras expression / decrease of ras mRNA,ras mRNA,63%
CTTATATTCCGTCATCGCTC [Oligonucleotide 2502],inhibition of ras expression / decrease of ras mRNA,ras mRNA; listed as 2502,26%
"CTCGCCCGCTCCTCCTCCCC (2'-O-methyl P=S chimera, chemistry not fully specified) [ISIS 7849]",inhibition of c-raf mRNA expression,c-raf mRNA,> 70%
CGA CUAUGCAAG UAC (CGACUAUGCAAGUAC; chemistry not fully specified),Tm (° C.)/ subst.,[2],+1.7 °C
same,G°37,[2]; [3],-16.18 ± 0.08 kcal/mol
same,G°37,[2]; [4],-6.07 ± 0.09 kcal/mol
same,Tm (° C.),[2],+13.8 °C
"TCCCGCCTGTGACATGCATT (2'-O-methyl P=S chimera, 6-deoxy gap, chemistry not fully specified) [ISIS 6720]",inhibition of c-raf mRNA expression,c-raf mRNA,greater than 70%
"TsCsTs CsGsCs TsGsGs TsGsAs GsTsTs TsC (TCTCGCTGGTGAGTTTC; all phosphorothioate, sugars by position and methylation of C not given here) [Oligonucleotide 7082]",reduction of PKC-α mRNA levels,PKC-α mRNA,most active in reducing PKC-α mRNA levels
C^MC^MA^M C^MA^MC^M C^MG^MAd C^MG^MG^M C^MG^MC^M C^MC^M [Oligonucleotide 3975],inhibition of ras-luciferase activity,[1],neither of the oligonucleotides having either the one or the three 2′-deoxy-erythro-pentofuranosyl nucleotide subsequences showed significant activity
CTTATATTCCGTCATCGCTC [Oligonucleotide 4998],inhibition of ras expression / decrease of ras mRNA,ras mRNA; listed as 4998,84%
"TCCTCCTCCCCGCGGCGGGT (2'-O-methyl P=S chimera, chemistry not fully specified) [ISIS 7848]",inhibition of c-raf mRNA expression,c-raf mRNA,> 70%
C^MC^MA^M C^MAdCd CdGdAd CdGdGd CdG^MC^M C^MC^M [Oligonucleotide 3984],inhibition of ras expression / decrease of ras mRNA,ras mRNA,81%
C^MC^MA^M C^MA^MC^M C^MGdAd CdG^MG^M C^MG^MC^M C^MC^M [Oligonucleotide 3979],inhibition of ras-luciferase activity,[1],neither of the oligonucleotides having either the one or the three 2′-deoxy-erythro-pentofuranosyl nucleotide subsequences showed significant activity
TCCGTCATCGCTCCTCAGGG [Oligonucleotide 5122],inhibition of ras expression / decrease of ras mRNA,ras mRNA; listed as 5122,15%
"TsTsCs TsCsGs CsTsGs GsTsGs AsGsTs TsTsC (TTCTCGCTGGTGAGTTTC; all phosphorothioate, sugars by position and methylation of C not given here) [Oligonucleotide 6632]",reduction of PKC-α mRNA levels,PKC-α mRNA,most active in reducing PKC-α mRNA levels
"C^MC^MA^M C^MA^MCd CdGdAd CdGdGd C^MG^MC^M C^MC^M (antisense CCACACCGACGGCGCCC; sugars from the 5' end m5 d7 m5, backbone and methylation of C not given here) [Oligonucleotide 3985, 2′-O-methyl P═S chimera, 7-deoxy gap]",inhibition of ras-luciferase activity,[1],greatest inhibition
same,inhibition of ras expression / decrease of ras mRNA,ras mRNA,95% and 81%
"AsAoAoAoCoGsTsCsAsGsCsCsAsTsGoGoToCoCsC (AAAACGTCAGCCATGGTCCC; linkages s1 o4 s9 o4 s1 (s phosphorothioate, o phosphodiester), sugars by position and methylation of C not given here; further chemistry not fully specified) [Oligonucleotide 7008]",reduction of PKC-α mRNA levels,PKC-α mRNA,show reduction of PKC-α mRNA
CsCsAsCoAoCoCoGoAoCoGoGoCoGsCsCsC [Oligonucleotide 4241],effect on ras expression,[1],completely inactive
C^MC^MA^M C^MA^MC^M CdGdAd CdGdG^M C^MG^MC^M C^MC^M [Oligonucleotide 3980],inhibition of ras-luciferase activity,[1],next greatest inhibition
same,inhibition of ras expression / decrease of ras mRNA,ras mRNA,61%
"AsAsAsAsCsGsTsCsAsGsCsCsAsTsGsGsTsCsCsC (AAAACGTCAGCCATGGTCCC; 2'-O-methyl/deoxy P=S chimera, chemistry not fully specified) [Oligonucleotide 5352]",reduction of PKC-α mRNA levels,PKC-α mRNA,most active
CsCsAsCsAsCsCsGsAoCsGsGsCsGsCsCsC [Oligonucleotide 4248],effect on ras expression,[1],just as active as a full P═S molecule
"AoAoAoAoCoGsTsCsAsGsCsCsAsTsGoGoToCoCoC (AAAACGTCAGCCATGGTCCC; listed as DNA, chemistry not fully specified) [Oligonucleotide 7273]",reduction of PKC-α mRNA levels,PKC-α mRNA,more active than their 2′-O-methyl counterparts
"AsAoAoAoCoGsTsCsAsGsCsCsAsTsGoGoToCoCsC (AAAACGTCAGCCATGGTCCC; listed as DNA, chemistry not fully specified) [Oligonucleotide 7294]",reduction of PKC-α mRNA levels,PKC-α mRNA,more active than their 2′-O-methyl counterparts
AsAsAsAsCsGsTsCsAsGsCsCsAsTsGsGsTsCsCsC (dA*dA*dA*dA*dC*dG*dT*dC*dA*dG*dC*dC*dA*dT*dG*dG*dT*dC*dC*dC) [Oligonucleotide 3522],reduction of PKC-α mRNA levels,PKC-α mRNA,show reduction of PKC-α mRNA
CGACUAUGCAAG UAC (CGACUAUGCAAGUAC; chemistry not fully specified),Tm (° C.)/ subst.,[2],+1.8 °C
same,G°37,[2]; [3],-19.85 ± 0.05 kcal/mol
same,G°37,[2]; [4],-9.74 ± 0.06 kcal/mol
same,Tm (° C.),[2],+20.1 °C
C^FC^FA^F C^FA^FCd CdGdAd CdGdGd C^FG^FC^F C^FC^F [Oligonucleotide 4690],inhibition of ras expression / decrease of ras mRNA,ras mRNA,82%
